The subject of this test is SMN2-linked luciferase-reporter gene construct. Kind of test: SMN splice reporter assay (SMN2-linked luciferase reporter, Example 10). Particulars: for maximal fold induction: read-out: SMN Splice Reporter Assay (Example 10) Avg MaxFold Increase. It is filed as cell-based. The essentials:
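Cervical carcinoma cells stably carrying an SMN2–luciferase splice reporter, in which luciferase is in frame only when SMN2 exon 7 is included, were treated with compound. Luciferase activity was read and expressed as fold increase over untreated transformed cells.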

Where [1] appears, read: maximum fold increase of reporter signal, average.
[2] abbreviates: SMN2-linked luciferase reporter, average.

Usually EC50 stands for the concentration at which the effect is half-maximal. Read a high EC50 as a less potent agent.

Read-outs that look alike come from different tables or passages of the source.

With `Cc1cc(N2Cc3ccccc3C2=O)ccc1C(C)C(=O)O` (stereo not drawn) [ALB-112485], under setting [1], the maximal fold induction turned out to be 1.3. Take `Cc1cc(C(C)C(=O)O)ccc1N1Cc2ccccc2C1=O` (stereo not drawn) [ALB-112487]: the maximal fold induction under setting [1] was determined as 1.17.

In the case of `CC(C(=O)O)c1ccc(N2Cc3ccc(-c4cccnc4)cc3C2=O)cc1` (stereo not drawn) [ALB-112514], under setting [1], the maximal fold induction worked out at 1.25. For the compound `CC(C(=O)O)c1ccc(N2Cc3ccc(-c4cccs4)cc3C2=O)cc1` (stereo not drawn) [ALB-112515], the response under setting [2] was half-maximal at 494 nM (EC50). Moreover, under setting [1], the maximal fold induction was determined as 1.62. In the case of `CC(C(=O)O)c1ccc(N2Cc3ccc(-c4ccc(Cl)c(Cl)c4)cc3C2=O)cc1` (stereo not drawn) [ALB-112516], the maximal fold induction under setting [1] was 1.2. `CC(C(=O)O)c1ccc(N2Cc3ccc(-c4cncnc4)cc3C2=O)cc1` (stereo not drawn) [ALB-112517]: the maximal fold induction under setting [1] was found to be 1.25. With `CC(C(=O)O)c1ccc(N2Cc3cccc(C#N)c3C2=O)cc1` (stereo not drawn) [ALB-112518], under setting [1], the maximal fold induction came out at 1.12.

As to `CC(C(=O)O)c1ccc(N2Cc3cc(N4CCOCC4)ccc3C2=O)cc1` (stereo not drawn) [ALB-112554], under setting [1], the maximal fold induction was 1.06. As to `Cc1cccc2c1CN(c1ccc(C(C)C(=O)O)cc1)C2=O` (stereo not drawn) [ALB-112555], the EC50 under setting [2] was 5900 nM. Besides, the maximal fold induction under setting [1] came to 1.64.

Under setting [2], `Cc1ccc2c(c1)CN(c1ccc(C(C)C(=O)O)cc1)C2=O` (stereo not drawn) [ALB-112556] had an EC50 of 146 nM. Also, the maximal fold induction under setting [1] was determined as 1.56. Turning to `Cc1cccc2c1C(=O)N(c1ccc(C(C)C(=O)O)cc1)C2` (stereo not drawn) [ALB-112557], under setting [2], the EC50 amounted to 288 nM. Also, the maximal fold induction under setting [1] amounted to 1.73.

As for `C[C@H](C(=O)O)c1ccc(N2Cc3ccccc3C2=O)cc1` [ALB-112837], the EC50 under setting [2] amounted to 8540 nM. Besides, the maximal fold induction under setting [1] came out at 1.4. For the compound `CC(C(=O)O)c1ccc(N2CC3=C(CC=CC3)C2=O)cc1` (stereo not drawn) [ALB-112896], under setting [2], the EC50 is 1010 nM. Further, the maximal fold induction under setting [1] worked out at 1.58.

Under setting [2], `CC(C(=O)O)c1ccc(N2CC3CCCCC3C2=O)cc1` (stereo not drawn) [ALB-112901] showed an EC50 of 5820 nM. Further, the maximal fold induction under setting [1] is 1.49.

For `C[C@@H](C(=O)O)c1ccc(N2Cc3ccccc3C2=O)cc1` [ALB-112941], the EC50 under setting [2] was found to be 280 nM. The maximal fold induction under setting [1] was 1.48. `CC(C(=O)O)c1ccc(N2CC3=C(CCCC3)C2=O)cc1` (stereo not drawn) [ALB-112951] yielded an EC50 under setting [2] of 279 nM. Under setting [1], the maximal fold induction is 1.79. On to `Cc1ccc2c(c1)C(=O)N(c1ccc(C(C)C(=O)O)cc1)C2` (stereo not drawn) [ALB-112954], for which it took 330 nM to reach a half-maximal effect under setting [2] (EC50). Moreover, the maximal fold induction under setting [1] worked out at 1.62. In turn, `C/C=C\c1ccc2c(c1)C(=O)N(c1ccc(C(C)C(=O)OC(C)(C)C)cc1)C2` (stereo not drawn) [ALB-113000] registered an EC50 under setting [2] of 3740 nM. In addition, under setting [1], the maximal fold induction is 1.31.

Under setting [2], `C=Cc1ccc2c(c1)CN(c1ccc(C(C)C(=O)OC(C)(C)C)cc1)C2=O` (stereo not drawn) [ALB-113100] displayed an EC50 of 101 nM. Under setting [1], the maximal fold induction was 1.05.

`CCOc1ccc2c(c1)C(=O)N(c1ccc(C(C)C(=O)OC(C)(C)C)cc1)C2` (stereo not drawn) [ALB-113101] had an EC50 under setting [2] of 242 nM. In addition, under setting [1], the maximal fold induction was 1.38. For `CCOc1ccc2c(c1)C(=O)N(c1ccc(C(C)C(=O)O)cc1)C2` (stereo not drawn) [ALB-113102], in that order: 62 nM and 1.83. For `CC(C(=O)O)c1ccc(N2Cc3ccc(O)cc3C2=O)cc1` (stereo not drawn) [ALB-113103], the maximal fold induction under setting [1] stood at 1.04. Turning to `C=Cc1ccc2c(c1)C(=O)N(c1ccc(C(C)C(=O)OC(C)(C)C)cc1)C2` (stereo not drawn) [ALB-113210], a half-maximal effect under setting [2] (EC50) was put at 2880 nM. For the same compound, under setting [1], the maximal fold induction is 1.15. As to `CCc1ccc2c(c1)C(=O)N(c1ccc(C(C)C(=O)OC(C)(C)C)cc1)C2` (stereo not drawn) [ALB-113211], under setting [2], the EC50 was found to be 786 nM. Also, the maximal fold induction under setting [1] was 1.37. Under setting [2], `CCc1ccc2c(c1)C(=O)N(c1ccc(C(C)C(=O)O)cc1)C2` (stereo not drawn) [ALB-113212] came in with an EC50 of 103 nM. Besides, under setting [1], the maximal fold induction is 1.87. The compound `CC(CO)c1ccc(N2Cc3ccccc3C2=O)cc1` (stereo not drawn) [ALB-113309] registered an EC50 under setting [2] of 144 nM. The maximal fold induction under setting [1] was 1.19. On the same counts, the results for `CC(=O)c1ccc2c(c1)C(=O)N(c1ccc(C(C)C(=O)O)cc1)C2` (stereo not drawn) [ALB-113387] are 50 nM and 1.18. For `CCCCCc1ccc2c(c1)C(=O)N(c1ccc(C(C)C(=O)O)cc1)C2` (stereo not drawn) [ALB-113388], in that order: 1120 nM and 1.77. For `COCC(C)c1ccc(N2Cc3ccccc3C2=O)cc1` (stereo not drawn) [ALB-113389], in that order: 179 nM and 1.34. Under setting [2], `C=Cc1ccc2c(c1)CN(c1ccc(C(C)C(=O)O)cc1)C2=O` (stereo not drawn) [ALB-113390] returned an EC50 of 10400 nM. In addition, the maximal fold induction under setting [1] stood at 1.29. On the same counts, the results for `CCOc1cccc2c1C(=O)N(c1ccc(C(C)C(=O)O)cc1)C2` (stereo not drawn) [ALB-113391] are 15300 nM and 1.46. With `CC(C)Oc1cccc2c1C(=O)N(c1ccc(C(C)C(=O)O)cc1)C2` (stereo not drawn) [ALB-113392], the EC50 under setting [2] was 4860 nM. For the same compound, the maximal fold induction under setting [1] came out at 1.65.

In the case of `C=Cc1cccc2c1C(=O)N(c1ccc(C(C)C(=O)O)cc1)C2` (stereo not drawn) [ALB-113393], a half-maximal response under setting [2] (EC50) required 209 nM. In addition, under setting [1], the maximal fold induction turned out to be 1.21. Under setting [2], `CCc1cccc2c1C(=O)N(c1ccc(C(C)C(=O)O)cc1)C2` (stereo not drawn) [ALB-113395] had an EC50 of 1840 nM. For the same compound, the maximal fold induction under setting [1] was found to be 1.49. Consider `CCc1ccc2c(c1)CN(c1ccc(C(C)C(=O)O)cc1)C2=O` (stereo not drawn) [ALB-113490], for which, under setting [2], the concentration giving a half-maximal response (EC50) worked out at 218 nM. Besides, the maximal fold induction under setting [1] is 1.48. As to `CCCCCc1ccc2c(c1)CN(c1ccc(C(C)C(=O)O)cc1)C2=O` (stereo not drawn) [ALB-113491], under setting [1], the maximal fold induction is 1.12.

Under setting [2], `CC(C)Oc1ccc2c(c1)C(=O)N(c1ccc(C(C)C(=O)O)cc1)C2` (stereo not drawn) [ALB-113492] showed an EC50 of 24 nM. Moreover, the maximal fold induction under setting [1] came out at 1.67. With `CC(C(=O)O)c1ccc(N2Cc3ccc(OC4CCCC4)cc3C2=O)cc1` (stereo not drawn) [ALB-113493], under setting [2], the EC50 was 81 nM. Besides, under setting [1], the maximal fold induction is 1.89. `CCCCCOc1ccc2c(c1)C(=O)N(c1ccc(C(C)C(=O)O)cc1)C2` (stereo not drawn) [ALB-113494] registered an EC50 under setting [2] of 1170 nM. For the same compound, under setting [1], the maximal fold induction is 1.75.

Turning to `CCCCCCc1cccc2c1C(=O)N(c1ccc(C(C)C(=O)O)cc1)C2` (stereo not drawn) [ALB-113495], the EC50 under setting [2] was found to be 18300 nM. Also, under setting [1], the maximal fold induction is 1.35. `CC(=O)c1cccc2c1C(=O)N(c1ccc(C(C)C(=O)O)cc1)C2` (stereo not drawn) [ALB-113496]: the maximal fold induction under setting [1] amounted to 1.18. On to `CCCCCc1cccc2c1C(=O)N(c1ccc(C(C)C(=O)O)cc1)C2` (stereo not drawn) [ALB-113497], for which the maximal fold induction under setting [1] was found to be 1.18.

Take `CC(C(=O)O)c1ccc(N2Cc3cc(O)ccc3C2=O)cc1` (stereo not drawn) [ALB-113560]: the maximal fold induction under setting [1] was determined as 1.05.

Consider `CC(C)c1ccc2c(c1)CN(c1ccc(C(C)C(=O)O)cc1)C2=O` (stereo not drawn) [ALB-113561], for which the maximal fold induction under setting [1] is 1.21.

In the case of `CC(C)c1ccc2c(c1)C(=O)N(c1ccc(C(C)C(=O)O)cc1)C2` (stereo not drawn) [ALB-113563], the EC50 under setting [2] amounted to 55 nM. The maximal fold induction under setting [1] was 1.8. As to `CCCc1ccc2c(c1)CN(c1ccc(C(C)C(=O)O)cc1)C2=O` (stereo not drawn) [ALB-113564], the maximal fold induction under setting [1] amounted to 1.05. For `CC(C)c1cccc2c1C(=O)N(c1ccc(C(C)C(=O)O)cc1)C2` (stereo not drawn) [ALB-113565], under setting [1], the maximal fold induction was found to be 1.19. Under setting [2], `CC(C(=O)O)c1ccc(N2Cc3cccc(OC4CCCC4)c3C2=O)cc1` (stereo not drawn) [ALB-113566] gave an EC50 of 5150 nM. Under setting [1], the maximal fold induction stood at 1.96. As for `CC(C(=O)O)c1ccc(N2Cc3cc(N(C)C)ccc3C2=O)cc1` (stereo not drawn) [ALB-113646], under setting [1], the maximal fold induction was 1.05. With `CC(C(=O)O)c1ccc(N2Cc3cc(NS(C)(=O)=O)ccc3C2=O)cc1` (stereo not drawn) [ALB-113647], the maximal fold induction (SMN2-linked luciferase reporter, average maximum fold increase) was 1.11. Turning to `CCOc1ccc2c(c1)CN(c1ccc(C(C)C(=O)O)cc1)C2=O` (stereo not drawn) [ALB-113649], the maximal fold induction under setting [1] stood at 1.13. Under setting [2], `CC(CBr)c1ccc(N2Cc3ccccc3C2=O)cc1` (stereo not drawn) [ALB-113651] registered an EC50 of 209 nM. Besides, the maximal fold induction under setting [1] was found to be 1.44. The compound `CC(C(=O)O)c1ccc(N2Cc3cc(F)ccc3C2=O)cc1` (stereo not drawn) [ALB-113754] yielded an EC50 under setting [2] of 142 nM. The maximal fold induction under setting [1] amounted to 1.7.

Under setting [2], `CCCc1cccc2c1C(=O)N(c1ccc(C(C)C(=O)O)cc1)C2` (stereo not drawn) [ALB-113756] gave an EC50 of 15700 nM. Besides, under setting [1], the maximal fold induction turned out to be 1.33. Take `CCCCc1cccc2c1C(=O)N(c1ccc(C(C)C(=O)O)cc1)C2` (stereo not drawn) [ALB-113757]: the maximal fold induction under setting [1] turned out to be 1.18. The compound `CC(CN1CCOCC1)c1ccc(N2Cc3ccccc3C2=O)cc1` (stereo not drawn) [ALB-113758] showed a 50% effective concentration (EC50) under setting [2] of 1400 nM. The maximal fold induction under setting [1] came out at 1.29. On the same counts, the results for `CCCCCOc1ccc2c(c1)CN(c1ccc(C(C)C(=O)O)cc1)C2=O` (stereo not drawn) [ALB-113759] are 510 nM and 1.22. As for `CC(C)Oc1ccc2c(c1)CN(c1ccc(C(C)C(=O)O)cc1)C2=O` (stereo not drawn) [ALB-113834], under setting [1], the maximal fold induction came out at 1.1.

On to `CCCCc1ccc2c(c1)CN(c1ccc(C(C)C(=O)O)cc1)C2=O` (stereo not drawn) [ALB-113835], for which the maximal fold induction under setting [1] is 1.15. Under setting [2], `CC(C(=O)O)c1ccc(N2Cc3ccc(F)cc3C2=O)cc1` (stereo not drawn) [ALB-113836] showed an EC50 of 544 nM. Under setting [1], the maximal fold induction came out at 1.78. For `CC(C(=O)O)c1ccc(N2Cc3cc(OC4CCCC4)ccc3C2=O)cc1` (stereo not drawn) [ALB-113963], under setting [1], the maximal fold induction came out at 1.14. Take `CC(C(=O)O)c1ccc(N2Cc3cc(OCC(F)(F)F)ccc3C2=O)cc1` (stereo not drawn) [ALB-113964]: under setting [1], the maximal fold induction is 1.08. Under setting [2], `C=Cc1ccc2c(c1)C(=O)N(c1ccc(C(C)C(=O)O)cc1)C2` (stereo not drawn) [ALB-113965] yielded an EC50 of 79 nM. In addition, the maximal fold induction under setting [1] worked out at 1.83.

Consider `CC(C(=O)O)c1ccc(N2Cc3ccc(OCC(F)(F)F)cc3C2=O)cc1` (stereo not drawn) [ALB-113966], for which the EC50 under setting [2] was 663 nM. In addition, the maximal fold induction under setting [1] was 1.78.

Source of the values: patent US8110681B2, “Compounds for the treatment of spinal muscular atrophy and other uses” (The United States of America as represented by the …, priority 2006, dated 2012).
